Source: patent US20250136617A1 (The Regents of the University of Colorado, A Body Corporate, priority 2022, published 2025)
Read-outs that look alike come from different tables or passages of the source. One block for each compound: values may come before it.

Tests used:
Type in all cases: cell-based
CXCR4 [1] = biological target: T1, CXCR4 (Homo sapiens, UniProt P61073); assay: primary 1536 w β-arrestin recruitment assay (FRET, β-lactamase reporter) in U2OS cells overexpressing CXCR4; parameters: host or cells: U2OS; details: for Emax: U2OS, read-out: CXCR4 b-arrestin Emax (%)
T1 sequence (P61073 whole entry): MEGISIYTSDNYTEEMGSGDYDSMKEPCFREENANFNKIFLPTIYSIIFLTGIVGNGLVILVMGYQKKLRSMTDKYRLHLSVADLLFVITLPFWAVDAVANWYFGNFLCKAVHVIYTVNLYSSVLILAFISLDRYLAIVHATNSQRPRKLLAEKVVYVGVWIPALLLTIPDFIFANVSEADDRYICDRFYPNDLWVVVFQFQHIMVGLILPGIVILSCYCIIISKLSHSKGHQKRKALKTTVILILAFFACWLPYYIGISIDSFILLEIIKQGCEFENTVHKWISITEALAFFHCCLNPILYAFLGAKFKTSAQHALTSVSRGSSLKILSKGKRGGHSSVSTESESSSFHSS
Description: In an effort to identify CXCR4 activators from the NIH Molecular Library Small Molecule Repository (MLSMR), a primary screening assay was developed to measure β-arrestin recruitment to the activated G-protein coupled receptor by Florescence Resonance Energy Transfer (FRET) in U2OS cells overexpressing the CXCR4 receptor engineered with a β-lactamase (bla) reporter system (Invitrogen cat #K1779). CXCR4-bla cells plated in 1536 w were stimulated in the presence of 10 uM compound concentration. […] Using this approach, 370,620 compounds from the NIH MLSMR were successfully screened and 303 hits were identified (hit rate=0.08%; Z′=0.83). […] These compounds were graded according to activity and structure resulting in 86 compounds that met criteria as potential CXCR4 agonists for further characterization.
Chemical stability, synthetic tractability, solubility and complete dose response and potency criteria led to the prioritization of the 5-aryl-2-cyclopropyl oxazole scaffold, represented by primary hit Compound 2 (Table 1). Early structure-activity relationship was established around the 5-aryl-2-cyclopropyl oxazole core with commercially available analogs with diverse substituents in the sulfonanilide ring of the scaffold. […] Keeping the 2-OMe substituent constant a small set of electron withdrawing and electron rich substituents at the 5-position of the anilide ring were screened (entries 16-19).

[2] = tested on: CEM-CCRF human lymphoblast cells; assay: Transwell migration assay in CEM-CCRF lymphoblasts
Description: Thus, to confirm CXCR4 functional activity, UCUF-728 was evaluated in a 96 w transwell migration assay in CEM human lymphoblast cells.
CEM-CCRF (ATCC CCL-119) were suspended in RPMI 1640 (Corning; 10-040-CV) at 5.0×10^5 cells/mL and allowed to incubate in cell culture incubator at 37° C. with 5% CO2 for one hour. […] Plates were reassembled and placed in a cell culture incubator at 37° C. with 5% CO2 for three hours. After incubation, Multi-Screen plate was disassembled and 100 μl of solution was collected from compound receiver tray and transferred to 96 well luminescent plate (Thermo Scientific; 265302) and an equal volume of ATPLite Istep luminescence reagent (Perkin Elmer, Waltham, MA; 6016731) was added to each well. Luminescence was measured using the CLARIOstar Plus (BMG LABTECH Inc., Cary, NC).

CXCR4 [3] = biological target: T1, CXCR4; assay: β-arrestin recruitment, 384-well, Tango CXCR4-bla U2OS cells, normalized to SDF-1α; parameters: host or cells: U2OS; details: for Emax: U2OS, read-out: TANGO β-arrestin Emax (%)
Description: Tango™ CXCR4-bla U2OS Cells (Invitrogen; K1779) were used for (β-arrestin recruitment assays and maintained as a monolayer culture in McCoy's 5a (Corning; 10-050-CV) supplemented with 10% dialyzed Fetal Bovine Serum (Gibco; 26400-044), 0.1 mM MEM Non-essential amino acids solution, 25 mM HEPES solution (Corning; 25-060-CI), 1 mM Sodium Pyruvate (Gibco; 11360-070), 200 μg/mL Zeocin selection reagent (Gibco; R25001), 50 μg/mL Hygromycin B (Gibco, 10687010), and 100 μg/mL Geneticin (G418 Sulfate) (Gibco, 10131035). U2OS cells were subcultured twice weekly by 0.05% Trypsin-EDTA treatment (Corning; 25-051-CI) and passaged to continue exponential growth phase for cell signaling assays. All cell cultures were maintained in cell culture incubators at 37° C. with 5% CO2. CHO-K1 CXCR4 cells (DiscoverX, Fremont, CA, USA) were used for cAMP inhibition assays and maintained as a monolayer culture in DMEM/F12 (Corning; 10-091-CV) supplemented with 10% Fetal Bovine Serum (Corning; 35-011-CV) and 100IU penicillin, […] streptomycin sulfate (Corning; 30-002-CI) and […] G418 (Gibco; 101310350. Cells were subculture 2 times weekly by o.o5% Trypsin-EDTA treatment (Corning; 25-051-CI) and passaged to continue exponential growth phase for cell signaling assays. All cell cultures were maintained in cell culture incubators at 37° C. with 5% CO2.CEM-CCRF cells (ATCC CCL-119) were used in both the migration and calcium flux assays and were cultured in growth media consisting of RPMI 1640 (Corning; 10-040-CV) supplemented with 10% Fetal Bovine Serum (Corning; 35-011-CV), and 100 IU penicillin, […] streptomycin sulfate (Corning; 30-002-CI). Cells were maintained in suspension and sub-cultured twice weekly to maintain cell densities between 0.8×10^6 cells/mL and 2.5×10^6 cells/mL to maintain exponential growth phase. Cells were harvested for use in migration and calcium flux assays at 2.0×10^6 cells/mL to 2.5×10^6 cells/mL and resuspended in assay media to desired density for respective experiments.
Tango™ CXCR4-bla U2OS Cells were resuspended in assay media consisting of DMEM (Corning; Corning, NY) supplemented with 1% dialyzed Fetal bovine serum, 0.1 mM MEM Non-essential amino acids solution, 25 mM HEPES solution (Corning; Corning, NY), 1 mM Sodium Pyruvate and 100 IU penicillin, […] streptomycin sulfate (Corning; Corning, NY) at a density of 3.0×10^5 cells/ml. Assay media FreeStyle 293 expression Medium (Gibco; 12338018) was used for testing the thiadiazine scaffold CXCR4 agonists. Cells suspension was dispensed at 30 μl per well into assay plate and incubated overnight in a cell culture incubator at 37° C. with 5% CO2. […] Following overnight incubation, LiveBlazer FRET B/G Loading Kit (Invitrogen; K1095) working reagent was prepared according to supplier guidelines and 6 μl of solution was dispensed into each well; 8 μL of solution for testing the thiadiazine scaffold CXCR4 agonists. Assay plate was covered and incubated in a dark place for two hours and Fluorescence Intensity was measured using the BMG LABTECH CLARIOstar Plus (BMG LABTECH Inc., Cary, NC) according to the LiveBlazer FRET B/G Loading Kit excitation and emission measurement guidelines.
Results are expressed as mean±SD for 3 to 5 independent experiments. Statistically significant differences in gene expression between two groups were assessed by Student's T-test, ANOVA with an appropriate post hoc test was be used for multiple comparisons. P<0.05 was considered to be statistically significant. All concentration response curves were analyzed to determine EC50 and Emax using the following equation:
where Y is the normalized response (0-100%), X is the log of concentration of compound tested, and the Hill slope is equal to 1.0% and 100% activity are specific to each assay. […]

[4] = normalized to SDF-1, read-out: TANGO β-arrestin EC50
[5] = Homo sapiens, read-out: Migration CEM EC50

EC50 (CXCR4 [1]; 1536 w screening platform): 1 µM
Emax (CXCR4 [1]): 46%
Compound: CCOc1ccccc1NS(=O)(=O)c1ccc(-c2cnc(C3CC3)o2)cc1 [compound 5]

Emax (CXCR4 [1]): 38%
Compound: CCOc1ccc(NS(=O)(=O)c2ccc(-c3cnc(C4CC4)o3)cc2)cc1 [compound 9]

EC50 ([2]; read-out: Migration CEM EC50): < 5 µM
TANGO β-arrestin Emax (%) (CXCR4 [3]; normalized to SDF-1): C (C ≤ 35)
EC50 (CXCR4 [3]; [4]): < 5 µM
EC50 (CXCR4 [3]; normalized to SDF-1α, read-out: ß-arrestin recruitment EC50): 1.4 µM
ß-arrestin recruitment Emax (%) (CXCR4 [3]; normalized to maximal SDF-1α response): 31%
Compound: CCOc1ccccc1-c1nnc2n1N=C(c1ccc(NC3CCCC3)cc1)CS2 [Entry 45]
Migration CEM Emax (%) [2]: C (C ≤ 35)

EC50 [2, 5]: > 10 µM
EC50 (CXCR4 [3]; [4]): > 10 µM
Compound: CCOc1ccccc1-c1nnc2n1N=C(c1ccc(NC(=O)c3ccc(C(=O)OC)cc3)cc1)CS2 [Entry 37]

EC50 [2, 5]: > 10 µM
EC50 (CXCR4 [3]; [4]): > 10 µM
Compound: CCOc1ccccc1-c1nnc2n1N=C(c1ccc(NC(=O)c3ccccc3C(=O)O)cc1)CS2 [Entry 35]

Emax (CXCR4 [1]): 38%
Compound: CCc1ccccc1NS(=O)(=O)c1ccc(-c2cnc(C3CC3)o2)cc1 [compound 3]

The remaining lines, values behind:

Compound: Cc1cc(C)cc(NS(=O)(=O)c2ccc(-c3cnc(C4CC4)o3)cc2)c1 [compound 15]
Emax (CXCR4 [1]): 39%

Compound: Cc1cccc(NS(=O)(=O)c2ccc(-c3cnc(C4CC4)o3)cc2)c1C [compound 10]
Emax (CXCR4 [1]): 40%

Compound: Cc1ccc(NS(=O)(=O)c2ccc(-c3cnc(C4CC4)o3)cc2)c(C)c1 [compound 12]
Emax (CXCR4 [1]): 38%

Compound: COCCOc1ccc(C2=Nn3c(nnc3-c3ccccc3OC)SC2)cc1 [Entry 8]
Emax ([2]; Homo sapiens): < 35%
EC50 ([2]; Homo sapiens, read-out: Migration CEM EC50 (μM)): < 5 µM
Emax (CXCR4 [3]; normalized to SDF-1): < 35%
EC50 (CXCR4 [3]; [4]): < 5 µM

Compound: COc1ccc(NS(=O)(=O)c2ccc(-c3cnc(C4CC4)o3)cc2)cc1OC [compound 20]
activity in primary β-arrestin assay (CXCR4 [1]; SAR discussion): inactive or had marginal activity

Compound: C=CCOc1ccc(C2=Nn3c(nnc3-c3ccccc3OCC)SC2)cc1 [Entry 7]
Migration CEM Emax (%) [2]: A (A ≥ 70)
EC50 [2, 5]: < 5 µM
TANGO β-arrestin Emax (%) (CXCR4 [3]; normalized to SDF-1): A (A ≥ 70)
EC50 (CXCR4 [3]; [4]): < 5 µM

Compound: C=CCOc1ccc(C2=Nn3c(nnc3-c3ccccc3OCC)SC2)cc1 [Entry 6]
Migration CEM Emax (%) [2]: B (35 < B < 70)
EC50 ([2]; read-out: Migration CEM EC50): < 5 µM
Emax (CXCR4 [3]; normalized to SDF-1): > 70%
EC50 (CXCR4 [3]; [4]): < 5 µM

Compound: CCOc1ccccc1-c1nnc2n1N=C(c1ccc(NC(=O)c3ccccc3)cc1)CS2 [Entry 34]
Emax ([2]; Homo sapiens): < 35%
EC50 [2, 5]: < 5 µM
Emax (CXCR4 [3]; normalized to SDF-1): 35 to 70%
EC50 (CXCR4 [3]; [4]): < 5 µM

Compound: CCOc1ccccc1-c1nnc2n1N=C(c1ccc(NCC3CCCC3)cc1)CS2 [Entry 49]
EC50 ([2]; read-out: Migration CEM EC50): > 10 µM
EC50 (CXCR4 [3]; [4]): > 10 µM
